Reference: paper PMC9005681, “Use of AD Informer Set compounds to explore validity of novel targets in Alzheimer's disease pathology” (Alzheimer's & Dementia : Translational Research & Clinical …, 2022)
Values joined by “and” are separate entries in the source; they are usually repeats but may differ in a detail not shown here. Identical values can stand only once.

Tests used:
[1] = molecular target: T1, cloned human or rodent CNS receptors, channels, and transporters (PDSP panel) (Homo sapiens, UniProt P08172); experiment: PDSP GPCR panel primary binding assays at 10 μM; conditions: M2, primary assay
T1 construct: expressed in transfected cells
T1 sequence (P08172 1-466): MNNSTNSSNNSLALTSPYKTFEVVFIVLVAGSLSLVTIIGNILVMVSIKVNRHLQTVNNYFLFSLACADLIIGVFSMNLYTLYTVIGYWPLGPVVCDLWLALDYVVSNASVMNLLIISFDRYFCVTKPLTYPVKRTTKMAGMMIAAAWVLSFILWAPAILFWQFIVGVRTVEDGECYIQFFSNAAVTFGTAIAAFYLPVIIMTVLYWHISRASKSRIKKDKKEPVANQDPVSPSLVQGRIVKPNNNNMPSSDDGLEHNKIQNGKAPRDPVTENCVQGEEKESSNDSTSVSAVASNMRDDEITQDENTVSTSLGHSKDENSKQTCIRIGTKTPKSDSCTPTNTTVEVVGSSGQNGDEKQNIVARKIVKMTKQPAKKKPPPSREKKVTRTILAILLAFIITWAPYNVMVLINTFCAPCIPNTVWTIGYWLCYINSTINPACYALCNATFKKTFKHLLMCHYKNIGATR
Procedure, shortened: (§1)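 Each compound is first screened once at 10 μM, in quadruplicate, for radioligand displacement. Where mean displacement passes 50%, an 11-point dose-response in triplicate follows at that target, except at H3, PBR and GABAA.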

[2] = molecular target: T2, cloned human or rodent CNS receptors, channels, and transporters (PDSP panel) (Homo sapiens, UniProt P21728); experiment: PDSP GPCR panel primary binding assays at 10 μM; conditions: D1, primary assay
T2 construct: expressed in transfected cells
Procedure, shortened: as §1

[3] = molecular target: T3, cloned human or rodent CNS receptors, channels, and transporters (PDSP panel) (Homo sapiens, UniProt P23975); experiment: PDSP GPCR panel primary binding assays at 10 μM; conditions: NET, primary assay
T3 construct: expressed in transfected cells
Procedure, shortened: as §1

[4] = molecular target: T4, cloned human or rodent CNS receptors, channels, and transporters (PDSP panel) (Homo sapiens, UniProt P25021); experiment: PDSP GPCR panel primary binding assays at 10 μM; conditions: H2, primary assay
T4 construct: expressed in transfected cells
Procedure, shortened: as §1

[5] = molecular target: T5, cloned human or rodent CNS receptors, channels, and transporters (PDSP panel) (Homo sapiens, UniProt P28221); experiment: PDSP GPCR panel primary binding assays at 10 μM; conditions: 5-HT1D, primary assay
T5 construct: expressed in transfected cells
Procedure, shortened: as §1

[6] = molecular target: T6, cloned human or rodent CNS receptors, channels, and transporters (PDSP panel) (Homo sapiens, UniProt P34969); experiment: PDSP GPCR panel primary binding assays at 10 μM; conditions: 5-HT7A, primary assay
T6 construct: expressed in transfected cells
Procedure, shortened: as §1

[7] = molecular target: T7, cloned human or rodent CNS receptors, channels, and transporters (PDSP panel) (Homo sapiens, UniProt P35372); experiment: PDSP GPCR panel primary binding assays at 10 μM; conditions: MOR, primary assay
T7 construct: expressed in transfected cells
Procedure, shortened: as §1

[8] = molecular target: T8, cloned human or rodent CNS receptors, channels, and transporters (PDSP panel) (Homo sapiens, UniProt P41595); experiment: PDSP GPCR panel primary binding assays at 10 μM; conditions: 5-HT2B, primary assay
T8 construct: expressed in transfected cells
Procedure, shortened: as §1

[9] = molecular target: T9, cloned human or rodent CNS receptors, channels, and transporters (PDSP panel) (Homo sapiens, UniProt P46098); experiment: PDSP GPCR panel primary binding assays at 10 μM; conditions: 5-HT3, primary assay
T9 construct: expressed in transfected cells
T9 sequence (P46098 24-478): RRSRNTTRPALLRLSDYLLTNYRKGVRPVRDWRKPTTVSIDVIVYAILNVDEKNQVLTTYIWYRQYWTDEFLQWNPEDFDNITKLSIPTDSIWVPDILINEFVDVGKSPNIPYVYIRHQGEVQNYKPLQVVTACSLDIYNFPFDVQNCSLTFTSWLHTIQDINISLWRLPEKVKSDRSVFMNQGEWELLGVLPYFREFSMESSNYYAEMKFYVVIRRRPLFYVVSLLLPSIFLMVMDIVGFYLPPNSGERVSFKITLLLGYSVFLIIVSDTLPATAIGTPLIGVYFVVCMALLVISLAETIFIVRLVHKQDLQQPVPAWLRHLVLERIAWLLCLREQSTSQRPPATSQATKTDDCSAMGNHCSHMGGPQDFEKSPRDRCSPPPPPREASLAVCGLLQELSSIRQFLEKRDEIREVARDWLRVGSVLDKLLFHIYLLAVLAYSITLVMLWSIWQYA
Procedure, shortened: as §1

[10] = molecular target: T10, cloned human or rodent CNS receptors, channels, and transporters (PDSP panel) (Homo sapiens, UniProt P47898); experiment: PDSP GPCR panel primary binding assays at 10 μM; conditions: 5-HT5A, primary assay
T10 construct: expressed in transfected cells
Procedure, shortened: as §1

cellular system = test system: cellular system; design: method as in column References for potency and dosing (the 5th table c13); conditions: published data; References for potency and dosing; cited from earlier work
[11] = aqueous, neutral pH (7.4); cited from earlier work

T6 sequence (P34969 whole entry): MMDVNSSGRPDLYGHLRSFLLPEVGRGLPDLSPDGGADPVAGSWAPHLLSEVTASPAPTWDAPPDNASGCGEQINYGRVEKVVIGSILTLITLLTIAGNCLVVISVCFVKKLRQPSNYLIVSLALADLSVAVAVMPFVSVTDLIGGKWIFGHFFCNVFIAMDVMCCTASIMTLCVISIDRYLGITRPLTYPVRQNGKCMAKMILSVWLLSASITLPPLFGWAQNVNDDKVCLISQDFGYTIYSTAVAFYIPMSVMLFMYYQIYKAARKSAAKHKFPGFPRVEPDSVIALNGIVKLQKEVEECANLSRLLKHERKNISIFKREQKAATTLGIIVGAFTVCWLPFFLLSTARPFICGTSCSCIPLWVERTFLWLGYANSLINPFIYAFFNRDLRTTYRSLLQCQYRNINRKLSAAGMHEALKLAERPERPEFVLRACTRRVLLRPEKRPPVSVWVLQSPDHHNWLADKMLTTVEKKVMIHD
T4 sequence (P25021 whole entry): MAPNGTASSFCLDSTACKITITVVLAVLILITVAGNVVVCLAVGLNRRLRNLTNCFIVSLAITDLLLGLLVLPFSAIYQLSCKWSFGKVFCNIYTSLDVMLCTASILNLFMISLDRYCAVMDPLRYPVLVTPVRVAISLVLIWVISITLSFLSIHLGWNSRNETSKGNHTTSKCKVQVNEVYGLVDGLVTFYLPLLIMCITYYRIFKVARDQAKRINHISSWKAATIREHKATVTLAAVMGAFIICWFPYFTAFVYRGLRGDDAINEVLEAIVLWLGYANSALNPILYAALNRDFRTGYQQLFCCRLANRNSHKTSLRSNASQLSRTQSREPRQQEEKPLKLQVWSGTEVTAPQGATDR
T2 sequence (P21728 whole entry): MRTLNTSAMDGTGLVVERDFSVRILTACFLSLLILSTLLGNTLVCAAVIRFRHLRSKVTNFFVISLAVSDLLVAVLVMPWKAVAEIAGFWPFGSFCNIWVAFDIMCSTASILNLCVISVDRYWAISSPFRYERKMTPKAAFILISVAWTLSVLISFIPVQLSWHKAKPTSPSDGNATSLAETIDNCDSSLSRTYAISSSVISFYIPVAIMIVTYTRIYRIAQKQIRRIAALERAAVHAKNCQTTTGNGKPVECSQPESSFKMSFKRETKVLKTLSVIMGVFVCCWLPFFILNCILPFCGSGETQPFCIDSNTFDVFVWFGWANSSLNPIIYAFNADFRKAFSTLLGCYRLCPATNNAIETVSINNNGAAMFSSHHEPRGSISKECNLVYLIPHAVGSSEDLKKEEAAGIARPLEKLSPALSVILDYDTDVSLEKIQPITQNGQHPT
T10 sequence (P47898 whole entry): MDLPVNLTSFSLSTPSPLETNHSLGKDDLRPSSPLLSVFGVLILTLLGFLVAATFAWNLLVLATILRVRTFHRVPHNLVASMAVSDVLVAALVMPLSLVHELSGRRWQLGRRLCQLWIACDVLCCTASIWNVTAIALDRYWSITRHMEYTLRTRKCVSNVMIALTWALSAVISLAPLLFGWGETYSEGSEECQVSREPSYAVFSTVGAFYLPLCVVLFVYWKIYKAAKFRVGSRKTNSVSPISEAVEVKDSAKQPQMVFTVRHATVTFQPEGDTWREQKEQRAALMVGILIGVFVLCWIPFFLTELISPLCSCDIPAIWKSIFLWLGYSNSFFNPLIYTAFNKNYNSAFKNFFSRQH
T3 sequence (P23975 whole entry): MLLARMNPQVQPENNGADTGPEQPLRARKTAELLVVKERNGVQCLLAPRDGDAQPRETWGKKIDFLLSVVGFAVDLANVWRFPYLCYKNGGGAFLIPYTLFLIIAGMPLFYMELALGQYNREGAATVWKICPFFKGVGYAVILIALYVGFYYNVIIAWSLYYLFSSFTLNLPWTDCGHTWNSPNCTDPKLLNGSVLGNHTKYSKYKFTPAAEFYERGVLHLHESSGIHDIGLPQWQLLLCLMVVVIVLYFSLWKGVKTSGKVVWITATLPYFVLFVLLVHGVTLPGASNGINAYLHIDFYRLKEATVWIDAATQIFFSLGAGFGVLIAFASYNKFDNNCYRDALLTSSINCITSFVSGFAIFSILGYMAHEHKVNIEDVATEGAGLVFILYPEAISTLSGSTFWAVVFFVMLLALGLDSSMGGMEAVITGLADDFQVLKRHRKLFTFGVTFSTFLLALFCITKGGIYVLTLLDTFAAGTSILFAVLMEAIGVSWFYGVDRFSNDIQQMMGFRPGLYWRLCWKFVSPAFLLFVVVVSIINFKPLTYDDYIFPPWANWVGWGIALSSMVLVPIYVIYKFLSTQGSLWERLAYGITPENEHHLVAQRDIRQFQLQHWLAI
T5 sequence (P28221 whole entry): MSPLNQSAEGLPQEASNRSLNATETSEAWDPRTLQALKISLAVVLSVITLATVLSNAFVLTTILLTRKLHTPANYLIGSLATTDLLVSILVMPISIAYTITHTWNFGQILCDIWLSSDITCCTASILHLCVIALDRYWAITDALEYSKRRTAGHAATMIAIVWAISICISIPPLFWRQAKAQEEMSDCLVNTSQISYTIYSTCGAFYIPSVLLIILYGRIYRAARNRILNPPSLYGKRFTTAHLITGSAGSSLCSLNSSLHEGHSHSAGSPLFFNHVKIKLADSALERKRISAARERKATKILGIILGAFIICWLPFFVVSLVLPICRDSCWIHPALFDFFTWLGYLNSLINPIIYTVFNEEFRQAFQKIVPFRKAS
T7 sequence (P35372 whole entry): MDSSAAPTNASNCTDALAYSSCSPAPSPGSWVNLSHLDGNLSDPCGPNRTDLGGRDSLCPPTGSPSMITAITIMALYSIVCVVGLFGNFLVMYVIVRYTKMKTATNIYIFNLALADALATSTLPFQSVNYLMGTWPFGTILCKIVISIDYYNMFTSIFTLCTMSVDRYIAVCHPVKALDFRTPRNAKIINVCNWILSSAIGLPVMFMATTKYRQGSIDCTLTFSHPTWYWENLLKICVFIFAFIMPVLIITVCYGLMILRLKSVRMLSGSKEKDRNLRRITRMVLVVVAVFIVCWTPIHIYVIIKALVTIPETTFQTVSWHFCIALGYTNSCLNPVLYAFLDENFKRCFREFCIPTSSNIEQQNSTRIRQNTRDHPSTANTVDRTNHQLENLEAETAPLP
T8 sequence (P41595 whole entry): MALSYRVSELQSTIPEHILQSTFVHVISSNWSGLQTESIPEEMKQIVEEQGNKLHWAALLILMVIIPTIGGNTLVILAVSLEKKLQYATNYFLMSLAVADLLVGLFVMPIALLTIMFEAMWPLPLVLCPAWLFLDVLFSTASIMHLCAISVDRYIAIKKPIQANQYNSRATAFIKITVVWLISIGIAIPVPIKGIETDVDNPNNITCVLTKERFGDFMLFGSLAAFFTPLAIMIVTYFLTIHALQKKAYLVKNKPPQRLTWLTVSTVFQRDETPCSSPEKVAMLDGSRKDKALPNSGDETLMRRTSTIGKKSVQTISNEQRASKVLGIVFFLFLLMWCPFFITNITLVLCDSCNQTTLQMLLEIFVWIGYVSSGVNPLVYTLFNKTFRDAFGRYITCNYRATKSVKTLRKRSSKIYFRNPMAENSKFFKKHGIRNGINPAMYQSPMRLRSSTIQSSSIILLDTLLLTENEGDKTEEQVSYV

In the case of `O=C(NC1CC1)C(=O)C(Cc1ccccc1)NC(=O)[C@H]1CCC(=O)N1Cc1ccccc1` (stereo partly drawn) [UNC10302676A, ABT-957 (Alicapistat)], the Mean % ([1]; mean inhibition) is reported as 2.92%, the “Inhibition 1” value ([1]; replicate 1) is reported as 7.16% and the “Inhibition 2” value ([1]; replicate 2) is reported as -5.38%. For the same compound, the “Inhibition 3” value ([1]; replicate 3) was 7.65%, the “Inhibition 4” value ([1]; replicate 4) was 2.24% and the Mean % ([2]; mean inhibition) was 0%. For the same compound, the “Inhibition 1” value ([2]; replicate 1) was 13.52%, the “Inhibition 2” value ([2]; replicate 2) was -11.9% and the “Inhibition 3” value ([2]; replicate 3) was -21.45%. The “Inhibition 4” value ([2]; replicate 4) was 19.83%, the “Inhibition 1” value ([3]; replicate 1) was 22.45% and -0.84% and the “Inhibition 2” value ([3]; replicate 2) was -3.8% and -22.08%. The “Inhibition 3” value ([3]; replicate 3) was -17.85% and -14.66%, the “Inhibition 4” value ([3]; replicate 4) was -11.29% and -22.96% and the Mean % ([4]; mean inhibition) was 2.47%. The “Inhibition 1” value ([4]; replicate 1) was -6.09%, the “Inhibition 2” value ([4]; replicate 2) was 2.81% and the “Inhibition 3” value ([4]; replicate 3) was -1.92%. The “Inhibition 4” value ([4]; replicate 4) was 15.07%, the Mean % ([5]; mean inhibition) was 14.89% and the “Inhibition 1” value ([5]; replicate 1) was 25.3%. For the same compound, the “Inhibition 2” value ([5]; replicate 2) was 16.14%, the “Inhibition 3” value ([5]; replicate 3) was 8.22% and the “Inhibition 4” value ([5]; replicate 4) was 9.89%. For the same compound, the Mean % ([6]; mean inhibition) was 15.15%, the “Inhibition 1” value ([6]; replicate 1) was 8.6% and the “Inhibition 2” value ([6]; replicate 2) was 21.46%. The “Inhibition 3” value ([6]; replicate 3) was 9.06%, the “Inhibition 4” value ([6]; replicate 4) was 21.46% and the Mean % ([7]; mean inhibition) was 7.04%. For the same compound, the “Inhibition 1” value ([7]; replicate 1) was 10.32%, the “Inhibition 2” value ([7]; replicate 2) was 13.58% and the “Inhibition 3” value ([7]; replicate 3) was -4.06%. The “Inhibition 4” value ([7]; replicate 4) was 8.3%, the Mean % ([8]; mean inhibition) was -32.15% and the “Inhibition 1” value ([8]; replicate 1) was -14.32%. For the same compound, the “Inhibition 2” value ([8]; replicate 2) was -33.19%, the “Inhibition 3” value ([8]; replicate 3) was -45.78% and the “Inhibition 4” value ([8]; replicate 4) was -35.29%. The Mean % ([9]; mean inhibition) was -3.28%, the “Inhibition 1” value ([9]; replicate 1) was -2.95% and the “Inhibition 2” value ([9]; replicate 2) was -3.65%. The “Inhibition 3” value ([9]; replicate 3) was -8.86%, the “Inhibition 4” value ([9]; replicate 4) was 2.33% and the Mean % ([10]; mean inhibition) was -3.42%. For the same compound, the “Inhibition 1” value ([10]; replicate 1) was 4.48%, the “Inhibition 2” value ([10]; replicate 2) was -8.24% and the “Inhibition 3” value ([10]; replicate 3) was -6.55%. For the same compound, the “Inhibition 4” value ([10]; replicate 4) was -3.37%, the “Reported as cell active (<10 μM)” value (cellular system) was “Y (Published data supports that the compound is active in a cellular system when dosed at 10 μM (Y/N))” and the Kinetic solubility [11] was 176.5 µM.
